Laboratory results published in paper PMC6273932, “Xanthium strumarium as an Inhibitor of α-Glucosidase, Protein Tyrosine Phosphatase 1β, Protein Glycation and ABTS^+ for Diabetic and Its Complication” (Molecules, 2016).
In brackets after ≈: the same amount, converted by molar mass.

Tests used:
[1] = target: T1, protein tyrosine phosphatase 1β (PTP1β) (Homo sapiens, UniProt P18031); assay: PTP1β inhibitory activity assay (colorimetric kit, IR5 phosphopeptide substrate); assay type: biochemical
T1 sequence (P18031 1-322 limits assumed): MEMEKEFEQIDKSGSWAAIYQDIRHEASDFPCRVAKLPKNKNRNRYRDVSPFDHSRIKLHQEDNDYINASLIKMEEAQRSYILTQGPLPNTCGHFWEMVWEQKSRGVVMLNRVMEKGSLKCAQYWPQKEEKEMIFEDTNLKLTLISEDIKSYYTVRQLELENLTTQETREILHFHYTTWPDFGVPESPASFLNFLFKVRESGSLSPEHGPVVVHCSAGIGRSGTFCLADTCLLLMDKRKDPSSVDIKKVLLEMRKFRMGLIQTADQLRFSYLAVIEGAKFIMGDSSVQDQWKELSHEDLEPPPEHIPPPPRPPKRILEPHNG
Procedure: PTP1β tyrosine phosphatase drug discovery kit is a colorimetric, non-radioactive assay designed to measure the phosphatase activity of purified PTP1β. […] Following incubation at 37 °C for 30 min, the reaction was terminated with the BIOMOL RED^TM reagent. The amount of […] produced was estimated by measuring the absorbance at 620 nm. The non-enzymatic hydrolysis of the IR5 substrate was corrected by measuring the increase in absorbance at 620 nm obtained in the absence of PTP1β enzyme.

[2] = tested on: recombinant aldose reductase; conditions: compounds from X. strumarium; cited from earlier work
[3] = tested on: α-glucosidase from Saccharomyces sp.; assay: α-glucosidase inhibitory activity assay (pNPG substrate, absorbance 405 nm); assay type: biochemical
Source text: ^1H- and ^13C-NMR spectra and correlation NMR spectra such as COSY, HMBC, HMQC, and DEPT were obtained from a Bruker Avance DPX 400 (or 600) spectrometer (Berlin, Germany). These were obtained at operating frequencies of 400 MHz (^1H) and 100 (or 150) MHz (^13C) with CD3OD, (CD3)2SO, (CD3)2CO, or D2O and TMS was used as an internal standard; chemical shifts were reported in δ values. The α-glucosidase from Saccharomyces sp. (SSG) was purchased from Wako Pure Chemical Industries Ltd (Tokyo, Japan). […] All other chemicals and reagents used were of analytical grade.
The α-glucosidase inhibitory activity of the extracts and fractions was determined using a modified procedure reported method with a slight modification. The α-glucosidase activity was measured using the substrate p-nitrophenyl-α-D-glucopyranoside (pNPG), which is hydrolyzed by α-glucosidase to release the product p-nitrophenol, a colorant that can be monitored at 405 nm. The initial concentration of the enzyme solution was 0.62 unit/mL in 0.1 M phosphate buffer (pH 6.9) and the initial concentration of the substrate solution was 2 mM in the same phosphate buffer. The enzyme solution was mixed with water and the samples or controls in a clear 96-well microplate (flat bottom) and the reaction was initiated by addition of the substrate to the solution. The plates were incubated at 37 °C for 5 min and the reaction was terminated by the addition of 0.1 M Na2CO3. […] Background absorbance was determined using a non-enzyme control microplate containing the buffer and was subtracted from the absorbance of the samples and controls.

[4] = tested on: AGEs; set-up: method as in PMID 20118563; conditions: isolated from the extracts of Erigeron annuus; cited from earlier work
[5] = tested on: advanced glycation end products (AGEs); assay: AGEs inhibitory activity, bovine serum albumin-methylglyoxal assay (fluorescence); assay type: biochemical
Procedure: The modified procedure of Lee et al. was followed. Bovine serum albumin (10 mg/mL) was incubated with 5 mM methylglyoxal in sodium phosphate buffer (100 mM; pH 7.4). […] All of the reagents and samples were […] by filtration through 0.2 μm membrane filters and the mixture was incubated at 37 °C for 7 days. The fluorescence intensity was measured at an excitation wavelength of 330 nm and an emission wavelength of 410 nm with a LS50B fluorescence spectrometer Perkin-Elmer Ltd., (Buckinghamshire, FLS, UK). Aminoguanidine was also tested as a known inhibitor.

[6] = tested on: rat lens aldose reductase; conditions: compounds from X. strumarium; cited from earlier work
[7] = ABTS^+ radical scavenging activity assay
Procedure: The method described by Li et al. was used with slight modifications. ABTS^+ diammonium salt (2 mM) and potassium persulfate (3.5 mM) were mixed, diluted in distilled water and kept in the dark at room temperature for 24 h before use. After addition of ABTS^+ solution to 10 µL of antioxidant, measurements were recorded at 10 min post reaction. The percentage inhibition of absorbance at 750 nm was calculated and plotted as a function of concentration of antioxidants. Trolox was used as positive control.

[8] = isolated compounds, - is no activity

## COC(=O)[C@]1(O)C[C@@H](OC(=O)/C=C/c2ccc(O)c(O)c2)[C@@H](O)[C@H](OC(=O)/C=C/c2ccc(O)c(O)c2)C1 [compound 6, methyl-3,5-di-O-caffeoylquinic acid]
[1]; 1 μg/mL
  inhibition at 1 µg/mL: 24%
[1]; 2.5 μg/mL
  inhibition at 2.5 µg/mL: 30.7%
[1]; 5 μg/mL
  inhibition at 5 µg/mL: 50%
[1]; 10 μg/mL, - is no activity
  inhibition at 10 µg/mL: 82.5%
[1]; ratio of IC50 (μM) values
  fold higher inhibition than positive control sumarin (PTP1β): 2.93 fold
[2]
  recombinant aldose reductase inhibitory activity: strong
[3]; 2.5 μg/mL
  Inhibition (%) α-glucosidase: 22.63%
[3]; 5 μg/mL
  Inhibition (%) α-glucosidase: 40.00%
[3]; 12.5 μg/mL
  Inhibition (%) α-glucosidase: 59.11%
[3]; 25 μg/mL
  Inhibition (%) α-glucosidase: 96.50%
[3]; isolated compounds
  IC50: 18.4 µM
[3]; [8]
  IC50 α-glucosidase: 9.78 ± 0.79 µg/mL (≈ 18.4 µM)
[3]; ratio of IC50 (μM) values
  fold higher inhibition than positive control acarbose (α-glucosidase): 31.74 fold
[4]
  inhibitory activity on AGEs: strong inhibitory activity
[5]; 10 μg/mL
  Inhibition (%) AGEs: 24.24%
[5]; 20 μg/mL
  Inhibition (%) AGEs: 34.59%
[5]; 50 μg/mL
  Inhibition (%) AGEs: 54.77%
[5]; 100 μg/mL
  Inhibition (%) AGEs: 89.47%
[5]; isolated compounds
  IC50: 82.8 µM
[5]; [8]
  IC50 AGEs: 43.96 ± 3.89 µg/mL (≈ 82.9 µM)
[5]; ratio of IC50 (μM) values
  fold higher inhibition than positive control aminoguanidine (AGEs): 17.03 fold
[6]
  rat lens aldose reductase inhibitory activity: strong
[7]; 0.33 μg/mL
  Inhibition (%) ABTS^+: 7.49%
[7]; 1.66 μg/mL
  Inhibition (%) ABTS^+: 33.69%
[7]; 8.33 μg/mL
  Inhibition (%) ABTS^+: 98.31%
[7]; isolated compounds
  IC50: 6.03 µM
[7]; [8]
  IC50 ABTS^+ radical scavenging: 3.20 ± 0.28 µg/mL (≈ 6.03 µM)
[7]; ratio of IC50 (μM) values
  fold higher inhibition than positive control trolox (ABTS^+): 4.93 fold
